From publication PMC12504763, “Antiproliferation, 3D-multicellular spheroid and VEGFR-2 inhibitory properties of spiroindolin-2-ones with phosphonate function” (Scientific Reports, 2025)

How the values were obtained:
CAM blood vessel network = assay: Chick chorioallantoic membrane (CAM) anti-angiogenic assay; type: in vivo, chicken; conditions: 20 μL of 660 μM, 3 days
Experimental: CAM assay is an established xenograft technique for investigating the angiogenic effect due to the high resemblance of the human vascularized epithelium basement membrane with that of the chorioallantoic layer containing mainly type IV collagen[84]–[86].
Fig. 10 Images of light microscopy for anti-angiogenic evaluation of the tested compounds using CAM assay. […] The glass slide was placed on the surface of the CAM blood vessel network and left in an incubator at 37 °C for 3 days. The CAM blood vessel network was carefully cut and imaged under a light microscope (40 × magnification).
Fertilized white chicken eggs were incubated in a 37 °C incubator with constant humidity. On day 8, a small squared window was opened allowing the detachment of the growing CAM and shell. The opening was covered with an elastic bandage. […] The CAM was then sealed with a bandage and placed back in the incubator. CAMs were examined daily until day 12 (3 days), the vascularized membranes were then cut around the glass slide and fixed in 5% formalin. Images were taken with an Evos microscope at 40x and 100x magnification^9. Main blood vessel in the microscopic images of controls and samples were quantified by imageJ and analyzed for significant differences (n = 4).

[1] = test system: PaCa2 (pancreatic) cancer cell line; design: method as in Reference 30; conditions: standard drug sunitinib; ref Reference 30; cited from earlier work
[2] = test system: A549 (lung) cancer cell line; design: method as in Reference 45; conditions: standard drug doxorubicin; ref Reference 45; cited from earlier work

Structure (SMILES)	% Inhibition of the blood vessels in CAM test (CAM blood vessel network) [%]	Diameter of blood vessel (μm ± SEM) (CAM blood vessel network; CAM test, control 459.7 ± 13.8) [μm]	IC50 [1] [µM]	IC50 [2] [µM]
CCN(CC)CCNC(=O)c1c(C)[nH]c(/C=C2\C(=O)Nc3ccc(F)cc32)c1C [Sunitinib, reference compound]	88.6	52.3 ± 1.7	16.9	–
COc1cccc2c1C(=O)c1c(O)c3c(c(O)c1C2=O)C[C@@](O)(C(=O)CO)C[C@@H]3O[C@H]1C[C@H](N)[C@H](O)[C@H](C)O1 [Doxorubicin]	–	–	–	5.93
